Laboratory results: paper PMC5260423 (Journal of Veterinary Internal Medicine, 2016)

How the values were obtained:
[1] = target: Angiotensin converting enzyme (ACE) (Canis lupus familiaris, UniProt A0A8I3S3I6); assay type: in vivo, dog; settings: enalapril 0.5 mg/kg orally twice a day, 14–21 days
[2] = assay type: in vivo, cat
[3] = assay type: in vivo, dog
[4] = assay type: in vivo, dog; remark: listed apart in the source
[5] = in vivo; cited from earlier work
Pseudomonas aeruginosa = assay type: in vivo, dog
[6] = test system: Anaplasma phagocytophilum; assay type: in vivo, dog; settings: all sarolaner‐treated dogs
Ixodes scapularis = assay type: in vivo, dog
Borrelia burgdorferi = assay type: in vivo, dog; settings: single oral dose; negative antibody, PCR, and culture
[7] = assay type: in vivo, dog; settings: 15 mg/kg PO q12 h for 2 weeks
[8] = assay type: in vivo, dog; remark: listed apart in the source
[9] = assay type: in vivo, dog; remark: listed apart in the source
[10] = test system: hypothalamic‐pituitary‐thyroid axis; assay type: in vivo, dog; settings: mean dose 0.024 mg/kg every 24 hours for 8 or 16 weeks
[11] = assay type: in vivo, dog; remark: listed apart in the source
platelet aggregation = assay type: in vivo, dog; settings: 1 mg/kg orally; 20, 40 and 180 minutes
platelet function [12] = assay type: in vivo, dog; settings: day 7; HM5 analyzer
platelet function [13] = assay type: in vivo, dog
[14] = assay type: in vivo, dog; settings: mean ± SD; 18 of 20 dogs; single 1 mg/kg oral aspirin; LC‐MS
platelet function [15] = assay type: in vivo, dog; settings: Day 7
[16] = not given; remark: listed apart in the source
tubulin = assay type: cell-based, dog
platelet function [17] = assay type: in vivo, dog; settings: day 7
platelet function [18] = assay type: in vivo, dog; settings: day 7; remark: listed apart in the source
[19] = test system: Anaplasma phagocytophilum; assay type: in vivo, dog
[20] = not given; remark: listed apart in the source
[21] = assay type: in vivo, dog; remark: listed apart in the source
[22] = assay type: in vivo, dog; settings: 7 days, AST 24 hours after last dose
[23] = 8.5 mg/kg orally every 12 hours

Chain of Angiotensin converting enzyme (ACE) (A0A8I3S3I6 31-1241 limits assumed): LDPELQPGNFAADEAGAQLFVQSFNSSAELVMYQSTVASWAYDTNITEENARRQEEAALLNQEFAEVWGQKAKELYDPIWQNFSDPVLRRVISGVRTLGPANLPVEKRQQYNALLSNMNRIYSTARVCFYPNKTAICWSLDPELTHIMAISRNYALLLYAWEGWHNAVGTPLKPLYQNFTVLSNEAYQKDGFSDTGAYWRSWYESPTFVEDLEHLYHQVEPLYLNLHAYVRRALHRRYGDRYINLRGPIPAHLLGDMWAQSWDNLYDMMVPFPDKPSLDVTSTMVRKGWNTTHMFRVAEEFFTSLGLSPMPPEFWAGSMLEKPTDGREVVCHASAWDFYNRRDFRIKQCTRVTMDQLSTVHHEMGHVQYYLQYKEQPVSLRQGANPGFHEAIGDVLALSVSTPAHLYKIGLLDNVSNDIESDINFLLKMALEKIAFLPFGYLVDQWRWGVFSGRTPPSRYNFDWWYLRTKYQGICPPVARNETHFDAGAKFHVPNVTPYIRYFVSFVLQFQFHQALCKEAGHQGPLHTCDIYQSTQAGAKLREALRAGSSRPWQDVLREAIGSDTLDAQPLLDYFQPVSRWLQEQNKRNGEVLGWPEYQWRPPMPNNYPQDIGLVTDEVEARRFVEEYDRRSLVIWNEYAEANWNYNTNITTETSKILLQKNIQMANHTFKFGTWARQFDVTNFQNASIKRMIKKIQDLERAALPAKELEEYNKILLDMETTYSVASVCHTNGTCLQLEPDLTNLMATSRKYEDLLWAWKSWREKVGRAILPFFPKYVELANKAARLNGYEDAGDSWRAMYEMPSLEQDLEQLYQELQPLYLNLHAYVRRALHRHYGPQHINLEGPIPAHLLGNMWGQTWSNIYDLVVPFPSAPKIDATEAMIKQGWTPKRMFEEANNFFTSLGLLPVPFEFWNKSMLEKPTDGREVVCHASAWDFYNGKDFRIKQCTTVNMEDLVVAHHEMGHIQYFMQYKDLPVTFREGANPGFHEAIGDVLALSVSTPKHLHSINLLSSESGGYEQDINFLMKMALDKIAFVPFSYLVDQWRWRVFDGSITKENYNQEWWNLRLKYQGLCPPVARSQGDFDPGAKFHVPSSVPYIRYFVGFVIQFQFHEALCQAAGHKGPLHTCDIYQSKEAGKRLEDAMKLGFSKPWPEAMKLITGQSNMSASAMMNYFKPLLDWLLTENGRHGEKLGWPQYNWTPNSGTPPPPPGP

CCOC(=O)[C@H](CCc1ccccc1)N[C@@H](C)C(=O)N1CCC[C@H]1C(=O)O [enalapril]
median post therapy ACE activity, dogs homozygous for DNA variant ([1]; baseline 18.05 U/L): < 5.0 U/L
median post therapy ACE activity, wildtype dogs ([1]; baseline 27.4 U/L): < 5.0 U/L

COc1ccc2[nH]c([S+]([O-])Cc3ncc(C)c(OC)c3C)nc2c1 (stereo not drawn) [omeprazole]
serum gastrin in comparison to placebo ([2]; 0.83–1.6 mg/kg PO q12 h for 60 days, 6 cats, P < 0.002): significantly higher
intragastric pH after cessation ([2]; two cats with intragastric pH capsules): Evidence of gastric hyperacidity

cyanocobalamin [cbl]
median serum cbl after 28 days, PO ([3]; daily cyanocobalamin tablets ¼ to 1 mg by weight, n = 22, 245 at inclusion): 970 ng/L
mean increase in serum cbl at 28 days to baseline, PE ([3]; dog, in vivo): 1465 ± 745 ng/L
mean increase in serum cbl at 28 days to baseline, PO ([3]; dog, in vivo, po): 888 ± 449 ng/L
mean serum cbl after 3 months, PE ([3]; n = 13): 803 ± 275 ng/L
mean serum cbl after 28 days, PE ([3]; n = 19, 221 ± 43 at inclusion): 1686 ± 757 ng/L
median serum cbl after 3 months, PO ([3]; n = 20): 1334 ng/L
median increase in serum cbl after 3 months, PE ([3]; range 38–997): 608 ng/L
median increase in serum cbl after 3 months, PO ([3]; range 538–3663): 970 ng/L

Darbepoetin alfa
possible PRCA ([4]; 1/34 dogs): 2.9%
dogs with potential adverse events ([4]; dog, in vivo): 19/34
longest dosing interval at which a response was sustained ([4]; dog, in vivo): ≤ 21 days
responders (HCT of 30% achieved) ([4]; median starting dose 0.5 mcg/kg, every 7 days in 31/34 dogs): Twenty‐nine of 34 dogs were responders
median time to response ([4]; range 6 ‐ 106): 28 days
median survival following initiation of therapy ([4]; range 30 – 546): 118 days
cats that responded, of 25 [5]: 14 cats

CC[C@H]1OC(=O)[C@H](C)[C@@H](O[C@H]2C[C@@](C)(OC)[C@@H](O)[C@H](C)O2)[C@H](C)[C@@H](O[C@@H]2O[C@H](C)C[C@H](N(C)C)[C@H]2O)[C@](C)(O)C[C@@H](C)CN(C)[C@H](C)[C@@H](O)[C@]1(C)O [Azithromycin]
concentration of BHL, HHL and OdDHL in ear canal samples (Pseudomonas aeruginosa; 1 mL of 50 µg/mL topical SID for 56 days, P ≥ 0.2): not affected
clinical signs and duration of the disease (Pseudomonas aeruginosa; P = 0.5): no effect

CS(=O)(=O)CC(=O)N1CC2(C1)OCc1cc(C3=NO[C@@](c4cc(Cl)c(F)c(Cl)c4)(C(F)(F)F)C3)ccc12 [sarolaner]
A. phagocytophilum antibody in treated dogs [6]: negative antibody
percent reduction in mean live tick counts, Day 29, treated 28 days prior (Ixodes scapularis; 2 mg/kg oral): 90.9%
percent reduction in mean live tick counts, Day 30, treated 21 days prior (Ixodes scapularis; 2 mg/kg oral): 100%
percent reduction in mean live tick counts, Day 30, treated 28 days prior (Ixodes scapularis; 2 mg/kg oral): 97.1%
percent reduction in mean live tick counts, Day 33, treated 21 days prior (Ixodes scapularis; 2 mg/kg oral): 100%
percent reduction in mean live tick counts, Day 33, treated 28 days prior (Ixodes scapularis; 2 mg/kg oral): 100%
adverse reactions to treatment (Ixodes scapularis; dog, in vivo): no adverse reactions
transmission of B. burgdorferi to dogs infested 21 or 28 days after treatment (Borrelia burgdorferi): prevented transmission

Cc1ncc([N+](=O)[O-])n1CCO [Metronidazole, metronidazole]
altered fecal metabolites, out of 469 measured [7]: 98
fecal secondary bile acids ([7]; P < 0.001): reduction in secondary bile acids

CCOc1cc(N)c(Cl)cc1C(=O)NCC1CN(Cc2ccc(F)cc2)CCO1 (stereo not drawn) [mosapride]
median increase of plasma motilin after feeding, Group N ([8]; feeding only 65.0): -1.6 pg/mL
median increase of plasma motilin after feeding, Group S ([8]; feeding only 173.3): 37.0 pg/mL

C[C@]12CCC(=O)C=C1CC[C@@H]1[C@@H]2[C@@H](O)C[C@@]2(C)[C@H]1CC[C@]2(O)C(=O)CO [Hydrocortisone, hydrocortisone]
serum adiponectin concentrations on days 1, 3, 7, 30, 60, and 90 versus day 0 [9, 23]: decreased
serum leptin concentrations on days 1, 3, 7, 30, 60, and 90 versus day 0 [9, 23]: significantly increased
abdominal visceral fat mass on days 30, 60, and 90 versus day 0 ([9]; 8.5 mg/kg orally every 12 hours for 90 days, six dogs, CT): increased abdominal visceral fat mass

N[C@@H](Cc1cc(I)c(Oc2cc(I)c(O)c(I)c2)c(I)c1)C(=O)O [levothyroxine]
mean serum TSH during administration compared to baseline [10]: significantly lower
mean serum T4 and fT4 during administration compared to baseline ([10]; 28 dogs): significantly higher

Cc1[nH]c(/C=C2\C(=O)Nc3ccc(F)cc32)c(C)c1C(=O)NCCN1CCCC1 [toceranib phosphate]
median time to development of proteinuria ([11]; dogs that developed proteinuria): 47 days
median UPC in dogs that developed proteinuria ([11]; urine protein creatinine ratio): 0.7

COc1cccc2c1C(=O)c1c(O)c3c(c(O)c1C2=O)C[C@@](O)(C(=O)CO)C[C@@H]3O[C@H]1C[C@H](N)[C@H](O)[C@H](C)O1 [doxorubicin]
MTD of doxorubicin in the combination (IV every 21 days with toceranib 2.75 mg/kg PO every other day, 21 dogs): 25 mg/m2
dose limiting toxicity (DLT) (dog, in vivo): neutropenia

CC(=O)Oc1ccccc1C(=O)O [aspirin, acetylsalicylic acid]
inhibition of platelet aggregation after single dose (platelet aggregation): did not cause measureable inhibition of platelet aggregation
PW % aggregation with AA, post treatment mean (platelet function [12]): 7%
mean decrease in maximum amplitude, Dose A (platelet function [13]; 0.5 mg/kg, q24 h PO, Day 7 versus Day 0): 3.8%
mean decrease in maximum amplitude, Dose B (platelet function [13]; 1 mg/kg, q24 h PO, Day 7): 41.3%
mean decrease in maximum amplitude, Dose C (platelet function [13]; 2 mg/kg, q24 h PO, Day 7): 81.3%
mean decrease in maximum amplitude, Dose D (platelet function [13]; 4 mg/kg, q24 h PO, Day 7): 75.9%
mean decrease in maximum amplitude, Dose E (platelet function [13]; 10 mg/kg, q12 h PO, Day 7): 87.8%
maximum plasma concentrations (Cmax) [14]: 0.23 ± 0.21 µM
dogs with PFA‐100 closure time >300 seconds, Dose A (platelet function [15]; 0.5 mg/kg, q24 h): 0%
dogs with PFA‐100 closure time >300 seconds, Dose B (platelet function [15]; 1 mg/kg, q24 h): 25%
dogs with PFA‐100 closure time >300 seconds, Dose C (platelet function [15]; 2 mg/kg, q24 h): 62.5%
dogs with PFA‐100 closure time >300 seconds, Dose D (platelet function [15]; 4 mg/kg, q24 h): 87.5%
dogs with PFA‐100 closure time >300 seconds, Dose E (platelet function [15]; 10 mg/kg, q12 h): 87.5%

O=C(O)c1ccccc1O [SA, salicylic acid]
maximum plasma concentrations (Cmax) [14]: 21 ± 5 µM

COc1ccc2[nH]cc(CCNC(C)=O)c2c1 [treatment C, melatonin]
tolerability ([16]; one of the two dogs): had to be withdrawn due to emesis

COC(=O)Nc1nc2ccc(C(=O)c3ccccc3)cc2[nH]1 [MBZ, mebendazole]
tubulin depolymerization versus untreated control (tubulin): increased depolymerization of tubulin

COC(=O)[C@H](c1ccccc1Cl)N1CCc2sccc2C1 [clopidogrel]
PW % aggregation with AA, post treatment mean (platelet function [12]): 4%
PW % aggregation with ADP, post treatment mean (platelet function [12]): 9%
MP AUC with AA, post treatment mean (platelet function [17]): 19 U
MP AUC with ADP, post treatment mean (platelet function [17]): 13 U
PFA closure time, COL‐ADP cartridge, post treatment mean (platelet function [18]): 185 s
PFA closure time, P2Y cartridge, post treatment mean (platelet function [18]): > 300 s

C[C@]12CC[C@H]3[C@@H](CC[C@@]45O[C@@H]4C(O)=C(C#N)C[C@]35C)[C@@H]1CC[C@@H]2O [treatment A, trilostane]
dogs with complete hair regrowth ([16]; after three months of treatment (stated for treatment A)): 50%
dogs with partial regrowth ([16]; dog, in vivo): 37.5%

C[C@]12C=CC(=O)C=C1CC[C@@H]1[C@@H]2[C@@H](O)C[C@@]2(C)[C@H]1CC[C@]2(O)C(=O)CO [prednisolone]
clinical abnormalities ([19]; prednisolone 2 mg/kg PO daily for 2 weeks from Week 24): Clinical abnormalities were not detected

O=P1(N(CCCl)CCCl)NCCCO1 (stereo not drawn) [cyclophosphamide]
dogs with stable disease or partial/complete remission >100 days ([20]; 10 mg cyclophosphamide daily/every other day): 74%
dogs that developed haematuria ([20]; 10 mg cyclophosphamide daily/every other day, three dogs): 8.6%
dogs still alive over one year later ([20]; 13 of 35 dogs): 37%
dogs with DFI >6 months ([20]; 20 of 35 dogs): 57%
median survival time (MST), intermediate/high grade sarcomas ([20]; n = 18): 362 days

C[C@H]1c2cccc(O)c2C(=O)C2=C(O)[C@]3(O)C(=O)C(C(N)=O)=C(O)[C@@H](N(C)C)[C@@H]3[C@@H](O)[C@@H]21 [doxycycline]
AP antibodies on Week 48 in Group 1 ([19]; doxycycline 5 mg/kg PO twice daily for 4 weeks from Week 20): The only dogs that became AP seronegative by Week 48 were administered doxycycline

Cc1oncc1C(=O)Nc1ccc(C(F)(F)F)cc1 [leflunomide]
increased liver enzyme activities ([21]; 1 of 16): 6.3%
thrombocytopenia ([21]; 2 of 31): 6.5%
lethargy ([21]; 2 of 92): 2.2%
suspect blood dyscrasia ([21]; 3 of 92): 3.3%
diarrhea ([21]; 3 of 92, mean dose 1.79 ± 0.8 mg/kg/day): 3.3%
discontinued due to possible adverse events ([21]; 6 dogs): 6.5%
dogs with apparent positive response ([21]; 12 of 17 dogs (IMPA, IMTP, CH)): 70.5%

CC(=O)OCC(=O)[C@@]1(O)CC[C@H]2[C@@H]3CCC4=CC(=O)CC[C@]4(C)[C@H]3C(=O)C[C@@]21C [CA, cortisone acetate]
mean (±SEM) post AST serum cortisol, 25 mg [22]: 335 ± 13 nmol/L
mean (±SEM) post AST serum cortisol, 37.5 mg [22]: 326 ± 13 nmol/L
mean (±SEM) post AST serum cortisol, 50 mg [22]: 308 ± 13 nmol/L
mean (±SEM) post AST serum cortisol, 12.5 mg ([22]; 14 dogs, placebo 365 ± 13): 347 ± 13 nmol/L
